Patent US10016413B2, “Combination dopamine antagonist and opiate receptor antagonist treatment of addictive behavior” (University of Maryland, Baltimore, priority 2012, dated 2018)
“Also recorded” adds a separate entry of the source.

Tests used:
[1] = system: cocaine users; assay: Safety of l-THP in cocaine users: PD (blood pressure, heart rate); type: in vivo, human; details: for BP (Change from baseline %), first value of the pair / BP (Change from baseline %), second value of the pair / HR (Change from baseline %): n = 3
Source text: (§1) Data on safety of l-THP in six subjects of cocaine users was generated (Table 1). The major PD/PK parameters of the drug-drug interaction between l-THP and cocaine in cocaine users were compared between active drug and placebo groups. […] Since l-THP will be 10 fold more than LDN in the combination, the safety of l-THP is the major safety concern in the combination for human drug addicts.

[2] = PK of the drug-drug interaction between l-THP and cocaine in cocaine users; type: in vivo, human; details: cocaine users
Source text: as §1

[3] = system: locomotor activity; assay: Treatment effect on locomotor activity during extinction/treatment; type: in vivo, mouse; details: over the treatment period; l-THP 3 mg/kg, naltrexone 0.1 mg/kg, alone or combined
Experimental: Over the course of extinction/treatment the animal's locomotor activity was recorded. The locomotion scores graphed represent the treatment locomotion with the baseline locomotion score subtracted.

[4] = system: cocaine induced reinstatement of CPP; assay: Cocaine induced reinstatement of CPP (mouse model of CPP); type: in vivo; details: conditioned with 10 mg/kg cocaine, reinstated with 5 mg/kg cocaine, l-THP 3 mg/kg, naltrexone 0.1 mg/kg, alone or combined
Experimental: Animals were conditioned using 10 mg/kg cocaine for 4 days, and reinstated using 5 mg/kg cocaine. Reinstatement was carried out 48 hours after CPP was extinct. The CPP score is calculated as a change in baseline from the cocaine conditioned chamber. A two way ANOVA followed by Bonferroni post test comparisons was used for analysis of the effect of treatment on cocaine reinstatement.
Fixed dose l-THP/LDN (3 mg/kg/0.1 mg/kg) were tested in mouse model of CPP.

[5] = system: cocaine addicted mice; assay: Naltrexone induced withdrawal (global withdrawal score); type: in vivo; details: mice treated with 10 mg/kg cocaine over 4 days
Experimental: Animals were treated with 10 mg/kg cocaine over 4 days. On the 5th day animals were injected with different dose of Naltrexone and 3 mg/kg l-THP. After injection animals were monitored for withdrawal behaviors for 20 minutes. Total counts for jumping, teeth chattering, paw tremors and grooming with assigned points were used to calculate the global withdrawal score. A one way ANVOA followed by Bonferroni post test comparisons was used to determine the effect naltrexone dose on withdrawal (***p<0.001 and *p<0.05 respectively) n=5 for each group. Global Scores were calculated.
This effect was attributed to cocaine's up regulation of endogenous opioids and the significant blockade of opioid receptor by naltrexone.

[6] = cocaine users, first column group headed Post cocaine 0 min
[7] = cocaine users, second column group headed Post cocaine 0 min

Structure (SMILES) | peak changes in heart rate (HR) and blood pressure (BP) ([1]; cocaine users) | BP (Change from baseline %), first value of the pair [1, 6] | BP (Change from baseline %), second value of the pair [1, 6] | HR (Change from baseline %) [1, 6] | BP (Change from baseline %), first value of the pair [1, 7] | BP (Change from baseline %), second value of the pair [1, 7] | HR (Change from baseline %) [1, 7] | safety and tolerability in cocaine users ([1]; six subjects of cocaine users, active drug vs placebo) | effect of l-THP pretreatment on the Cmax or AUC0-inf of cocaine ([2]; vs placebo pretreated) | AUC(0-inf) ([2]; human, in vivo, n = 2, mean only, analyte l-THP, read-out: I-THP AUC 0-inf) | Cmax ([2]; human, in vivo, n = 2, mean only, analyte l-THP, read-out: I-THP Cmax) | effect on locomotor activity (locomotion) [3] | effect of treatment on cocaine reinstatement of CPP [4] | withdrawal, lower doses of naltrexone ([5]; naltrexone 1 mg/kg, 0.3 mg/kg and 0.1 mg/kg co-administered with l-THP (3 mg/kg)) | withdrawal symptoms, high dose naltrexone ([5]; naltrexone 30 mg/kg or 15 mg/kg co-administered with l-THP (3 mg/kg))
COc1cc2c(cc1OC)[C@@H]1Cc3ccc(OC)c(OC)c3CN1CC2 [l-THP, levo-tetrahydropalmatine] | within acceptable margin | 8 ± 9.3% | 10 ± 13% | 23.6 ± 27.1% | 5 ± 3% | 5 ± 2% | 8.5 ± 8.1% | safe and well tolerated | does not increase | 393 ng·h/mL | 38 ng/mL | significant effect on locomotion during week 3 and week 4; also recorded: reduced locomotor activity significantly | significant attenuation |  | 
O=C1CC[C@@]2(O)[C@H]3Cc4ccc(O)c5c4[C@@]2(CCN3CC2CC2)[C@H]1O5 [naltrexone] |  |  |  |  |  |  |  |  |  |  |  | did not display significant effect | did not have significant effect | did not produce withdrawal | withdrawal symptoms occurred
